Experimental data reported in US20060147456A1, “Induction of apoptosis in toll-like receptor expressing tumor cells” (priority 2004, published 2006).

What was measured:
[1] = tested on: colon cancer cell line LS174T; assay: BrdU incorporation and propidium iodide DNA content by FACS; type: cell-based
Description: (§1) Two cell lines, the colon cancer cell line LS174T and the breast cancer cell line Cama-1, were analyzed for death and cell cycle changes. Cells were cultured for 48 hours in either the presence or absence of Poly IC (5 μg/ml). Following a 30-minute pulse with 1 μg/ml bromodeoxyuridine (BrdU), the cells were fixed overnight at 4° C. in 70% ethanol before staining with FITC-coupled anti-BrdU monoclonal antibody and 3 μg/ml propidium iodide. Cell death and the cell cycle were analyzed by flow cytometry (FACS). BrdU incorporation is a measure of proliferation, whereas propidium iodide staining allows the quantification of DNA content, in particular the subdiploid cell population undergoing apoptosis.

Cama-1 cells = assay: BrdU incorporation and subdiploid DNA content by FACS; type: cell-based, human
Description: Cell recovery after treatment with TLR ligands was measured by crystal violet staining (Sigma-Aldrich). Cells were plated at 10^4 cells/well in 96 well plates. After 72 hours of culture either with or without TLR ligand, the cells were washed with PBS, fixed in 6% formaldehyde (Sigma-Aldrich) for 20 minutes, washed twice, and then stained with 0.1% crystal violet for 10 minutes. After washes and incubation in 1% SDS for 1 hour, the absorbance was read at 605 nm on a Vmax plate reader (Molecular Devices, Sunnyvale, Calif.). Annexin V staining was performed with an annexin-FITC apoptosis detection kit (BD Pharmingen, San Diego, Calif.) according to the manufacturer's instructions. Sub-diploid cells were detected by staining with 3 μg/mL propidium iodide (PI) (Molecular probes, Eugene, Oreg.), after overnight permeabilization in 70% ethanol. Fluorescence was analyzed by flow cytometry on a FACScalibur (Becton Dickinson, Mountain View, Calif.) equipped with a doublet-discrimination module and using Celiquest Pro software (Becton Dickinson).
as §1
TLR3 was analyzed for its role in Poly IC induced apoptosis. Cama-1 cells were transfected with siRNA corresponding to either: an irrelevant sequence (Scr RNA; sequence: ACUAGUUCACGAGUCACCUtt) (SEQ ID NO: 21), or hTLR3 (sequence: CAGUGUUGAACCUUACCCAtt) (SEQ ID NO: 22). siRNA transfections were performed for 5 hours in 1 mL OptiMEM™ medium containing 3 μg/mL lipofectamine 2000 and 100 nM siRNA. Cells were then washed in phosphate buffered saline solution (PBS) and cultured for 72 hours in complete medium before subsequent 48 hour treatment with 5 μg/mL Poly IC. The cell cycle was then analyzed by FACS after staining with ethidium bromide, as described in Example 3.

[2] = tested on: human primary breast tumor cells; assay: Apoptosis by PI staining (subG0/G1 cells); type: cell-based; conditions: 50 μg/ml Poly IC, 48 h; PBS 19.5%
Excerpt: Human primary breast tumor sample was obtained from the Centre Léon Bérard (Lyon, France) in agreement with the Hospital bioethical protocols. A single cell suspension was obtained after digestion with Collagenase A (Sigma-Aldrich) and washes and enrichment in Human Epithelial Antigen (HEA) positive cells using HEA-microbeads (Mylteni Biotech, Bergisch Gladbach, Germany) according to manufacturer's instructions. The final single cell suspension contained more than 80% HEA positive cells and less than 2% CD4^+ hematopoietic contaminants.
Cell recovery after treatment with TLR ligands was measured by crystal violet staining (Sigma-Aldrich). Cells were plated at 10^4 cells/well in 96 well plates. […] Sub-diploid cells were detected by staining with 3 μg/mL propidium iodide (PI) (Molecular probes, Eugene, Oreg.), after overnight permeabilization in 70% ethanol. Fluorescence was analyzed by flow cytometry on a FACScalibur (Becton Dickinson, Mountain View, Calif.) equipped with a doublet-discrimination module and using Celiquest Pro software (Becton Dickinson).
We then tried to determine the effect that Poly IC has on human primary breast tumor cells. […] Apoptosis was measured by PI staining. […]

IL-6 = IL-6 secretion by ELISA in siRNA transfected Cama-1 cells; type: cell-based, human; conditions: 24 h with 5 μg/ml Poly IC, untreated 10
Description: IL-6 secretion was measured in culture supernatants by standard Enzyme-Linked Assay (ELISA) using a DuoSet ELISA kit according to manufacturer's instructions (R&D Systems).
In parallel, IL-6 concentration in the supernatants of siRNA transfected Cama-1 cells cultured for 24 hours either with or without 5 μg/ml of Poly IC was determined by ELISA. […] In the siRNA IRAK-4 group, untreated and treated cells had IL-6 concentrations (pg/ml/10^6 cells) of 10 and 40, respectively. In the siRNA TRAF6 group, untreated and treated cells had IL-6 concentrations (pg/ml/10^6 cells) of 10 and 20, respectively.

PARP = assay: Western Blot for cleavage of PARP in Cama-1 cells; type: cell-based, human; conditions: Poly IC treatment
Description: Cama-1 cells were lysed in 1% Nonidet-P40-containing buffer. 20 μg total protein was loaded per lane on SDS-Polyacrylamide gels (Invitrogen). Western Blots (WB) were performed with standard techniques using the antibodies described above. Anti IRAK-4 monoclonal antibodies were generated in the laboratory according to the protocol described in Fossiez et al., “T cell interleukin-17 induces stromal cells to produce proinflammatory and hematopoietic cytokines”, J. Exp. Med., vol. 183(6), pp. 2593-2603 (1996).
We next addressed the role of caspases in apoptosis. Cama-1 cells were pre-incubated with 25 μM of the general caspase inhibitor z-VAD-fmk or DMSO for 1 hour before culture for 24 hours with or without 5 μg/ml Poly IC or 25 ng/ml TNF-α (used as a positive control). Apoptosis was measured by annexin V staining and expressed as a percentage of apoptotic cell in the culture.
In another experiment, lysates from cells obtained above were analyzed by Western Blot for cleavage of PARP, Caspase 3 and Caspase 8.

polyinosinic-polycytidylic acid [Poly IC]
percentage of cells with subdiploid DNA content ([1]; 48 h with 5 μg/ml Poly IC (3% before treatment)): 23%
percentage of cells that incorporated BrdU ([1]; 48 h with 5 μg/ml Poly IC (27% before treatment)): 9%
percentage of cells with subdiploid DNA content (Cama-1 cells; Cama-1, 48 h with 5 μg/ml Poly IC (4% before treatment)): 17%
percentage of cells that incorporated BrdU (Cama-1 cells; Cama-1, 48 h with 5 μg/ml Poly IC (15% before treatment)): 2%
percentage of subdiploid cells (Cama-1 cells; Cama-1 transfected with hTLR3 siRNA, 48 h with 5 μg/mL Poly IC): 3%
percentage of subdiploid cells (Cama-1 cells; Cama-1 transfected with scrambled RNA, 48 h with 5 μg/mL Poly IC (from 2%)): 45%
cells with low DNA content (subG0/G1 cells) [2]: 38.6%
IL-6 concentration in supernatant (IL-6; scr group): 110 pg/ml/10^6 cells
IL-6 concentration in supernatant (IL-6; siRNA IRAK-4 group): 40 pg/ml/10^6 cells
IL-6 concentration in supernatant (IL-6; siRNA TRAF6 group): 20 pg/ml/10^6 cells
cleavage of PARP (PARP): occurred
